Results as given in patent EP4667467A1, “PROTAC DEGRADERS OF MLLT1 AND/OR MLLT3” (Dark Blue Therapeutics Ltd, priority 2024, dated 2025).

Molecular target: T1, MLLT1 (Homo sapiens, UniProt Q03111)
T1 construct: endogenous in cells; host or cells: MV4-11 (ATCC CRL-9591)
T1 sequence (Q03111 1-559): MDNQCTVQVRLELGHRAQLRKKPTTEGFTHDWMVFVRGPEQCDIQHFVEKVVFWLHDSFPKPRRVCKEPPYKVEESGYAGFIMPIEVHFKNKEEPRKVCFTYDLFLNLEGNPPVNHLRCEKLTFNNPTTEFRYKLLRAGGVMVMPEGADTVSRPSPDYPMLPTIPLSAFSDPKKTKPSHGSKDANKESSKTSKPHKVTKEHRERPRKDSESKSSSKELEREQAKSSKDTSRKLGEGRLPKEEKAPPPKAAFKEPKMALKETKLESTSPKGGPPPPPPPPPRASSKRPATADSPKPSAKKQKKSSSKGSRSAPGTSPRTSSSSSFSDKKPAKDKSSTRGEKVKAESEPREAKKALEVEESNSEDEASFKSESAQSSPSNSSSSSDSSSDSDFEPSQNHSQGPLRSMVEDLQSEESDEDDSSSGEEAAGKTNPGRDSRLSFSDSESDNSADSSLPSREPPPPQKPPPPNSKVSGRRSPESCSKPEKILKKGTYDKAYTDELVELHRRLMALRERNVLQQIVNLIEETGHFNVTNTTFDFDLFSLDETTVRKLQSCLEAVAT
Test: MLLT1 Degradation Assay (JESS automated chemiluminescent detection, MV4-11 cells)
Format: cell-based
Conditions: 24h, with respect to DMSO control; for MLLT1 % Degradation @ 0.1 µM: 0.1 µM (100 nM) test compound; for MLLT 1 % Degradation @ 1 µM: 1 µM (1000 nM) test compound; for MLLT1 % Degradation @ 0.01 µM: 0.01 µM (10 nM) test compound
Experimental: MLLT1 degradation efficacy of compounds were tested in an automated chemiluminescent detection system (JESS, Cat# 004-650). […] 10 mM DMSO stocks were prepared, and cells were treated with three concentrations of test compounds viz. 1000, 100 and 10 nM at a final DMSO concentration of 0.1% and incubated for 24h at 37°C, 5% CO2. […] Post run, data were analysed using "Compass for SW" software for chemiluminescent detection. The peak area for each band was used for the calculation of MLLT1 degradation with respect to DMSO control. Data is shown as "MLLT1 % degradation".

Row | SMILES | MLLT1 % Degradation @ 0.1 µM | MLLT1 % Degradation @ 0.01 µM | MLLT 1 % Degradation @ 1 µM
1 | CN1CCC[C@@H]1c1cc2cnc(NC(=O)CCCCC3CCN(c4cccc5c4C(=O)N(C4CCC(=O)NC4=O)C5=O)CC3)cc2[nH]1 (stereo partly drawn) [Example 42, 5-(1-(2-(2,6-Dioxopiperidin-3-yl)-1,3-dioxoisoindolin-4-yl)piperidin-4-yl)-N-(2-((R)-1-methylpyrrolidin-2-yl)-1H-pyrrolo[3,2-c]pyridin-6-yl)pentanamide] | B (Category B: 50% ≤ B < 75% degradation) |  | B (Category B: 50% ≤ B < 75% degradation)
2 | CN1CCC[C@@H]1c1cc2cnc(NC(=O)c3cccc(CCCNc4cccc5c4C(=O)N(C4CCC(=O)NC4=O)C5=O)c3)cc2[nH]1 (stereo partly drawn) [Example 45, 3-(3-((2-(2,6-dioxopiperidin-3-yl)-1,3-dioxoisoindolin-4-yl)amino)propyl)-N-(2-((R)-1-methylpyrrolidin-2-yl)-1H-pyrrolo[3,2-c]pyridin-6-yl)benzamide] | A (Category A: A ≥ 75% degradation) | A (Category A: A ≥ 75% degradation) | A (Category A: A ≥ 75% degradation)
3 | CN1CCC[C@@H]1c1cc2cnc(NC(=O)c3ccc(OCC#Cc4cccc5c4CN(C4CCC(=O)NC4=O)C5=O)c(Cl)c3)cc2[nH]1 (stereo partly drawn) [Example 23, 3-chloro-4-((3-(2-(2,6-dioxopiperidin-3-yl)-1-oxoisoindolin-4-yl)prop-2-yn-1-yl)oxy)-N-(2-((R)-1-methylpyrrolidin-2-yl)-1H-pyrrolo[3,2-c]pyridin-6-yl)benzamide] | C (Category C: 25% ≤ C < 50% degradation) | C (Category C: 25% ≤ C < 50% degradation) | C (Category C: 25% ≤ C < 50% degradation)
4 | CN1CCC[C@@H]1c1cc2cnc(NC(=O)c3ccc(-c4ccn(CCCC#Cc5cccc6c5CN(C5CCC(=O)NC5=O)C6=O)n4)cc3)cc2[nH]1 (mixture of isomers) [Example 20, 4-(1-(5-(2-(2,6-dioxopiperidin-3-yl)-1-oxoisoindolin-4-yl)pent-4-yn-1-yl)-1H-pyrazol-3-yl)-N-(2-((R)-1-methylpyrrolidin-2-yl)-1H-pyrrolo[3,2-c]pyridin-6-yl)benzamide] | B (Category B: 50% ≤ B < 75% degradation) | B (Category B: 50% ≤ B < 75% degradation) | C (Category C: 25% ≤ C < 50% degradation)
5 | CN1CCC[C@@H]1c1cc2cnc(NC(=O)c3ccc(CCCNc4cccc5c4C(=O)N(C4CCC(=O)NC4=O)C5=O)cc3)cc2[nH]1 (stereo partly drawn) [Example 36, 4-(3-{[2-(2,6-dioxopiperidin-3-yl)-1,3-dioxoisoindol-4-yl]amino}propyl)-N-{2-[(2R)-1-methylpyrrolidin-2-yl]-1H-pyrrolo[3,2-c]pyridin-6-yl}benzamide] | A (Category A: A ≥ 75% degradation) | A (Category A: A ≥ 75% degradation) | A (Category A: A ≥ 75% degradation)

More lines, main results first:

Row | MLLT1 % Degradation @ 0.1 µM | MLLT1 % Degradation @ 0.01 µM | SMILES | MLLT 1 % Degradation @ 1 µM
6 | A (Category A: A ≥ 75% degradation) | A (Category A: A ≥ 75% degradation) | CN1CCC[C@@H]1c1cc2cnc(NC(=O)c3ccc(OCC#Cc4cccc5c4n(C)c(=O)n5C4CCC(=O)NC4=O)cc3)cc2[nH]1 (stereo partly drawn) [Example 66, 4-((3-(1-(2,6-dioxopiperidin-3-yl)-3-methyl-2-oxo-2,3-dihydro-1H-benzo[d]imidazol-4-yl)prop-2-yn-1-yl)oxy)-N-(2-((R)-1-methylpyrrolidin-2-yl)-1H-pyrrolo[3,2-c]pyridin-6-yl)benzamide] | A (Category A: A ≥ 75% degradation)
7 | A (Category A: A ≥ 75% degradation) | A (Category A: A ≥ 75% degradation) | CN1CCC[C@@H]1c1cc2cnc(NC(=O)c3ccc(CCCCC#Cc4cccc5c4CN(C4CCC(=O)NC4=O)C5=O)nc3)cc2[nH]1 (stereo partly drawn) [Example 10, 6-(6-(2-(2,6-dioxopiperidin-3-yl)-1-oxoisoindolin-4-yl)hex-5-yn-1-yl)-N-(2-((R)-1-methylpyrrolidin-2-yl)-1H-pyrrolo [3,2-c]pyridin-6-yl) nicotinamide] | B (Category B: 50% ≤ B < 75% degradation)
